US20240174624A1, “CHIRAL N-(1,3,4-OXADIAZOLE-2-YL)PHENYL CARBOXYLIC ACID AMIDES AND THEIR USE AS HERBICIDES” (Bayer Aktiengesellschaft, priority 2021, published 2024)

Assays:
ALOMY = experiment: Pre-emergence herbicidal action; assay type: in vivo, Alopecurus myosuroides; conditions: for Pre-emergence action against ALOMY: scored after 3 weeks
Text: (§1) Seeds of monocotyledonous and dicotyledonous weed plants and crop plants are laid out in sandy loam soil in wood-fibre pots and covered with soil. The compounds of the invention, formulated in the form of wettable powders (WP) or as emulsion concentrates (EC), are then applied to the surface of the covering soil in the form of an aqueous suspension or emulsion at a water application rate equivalent to 600 to 800 l/ha, with addition of 0.2% wetting agent. After the treatment, the pots are placed in a greenhouse and kept under good growth conditions for the trial plants. The damage to the test plants is scored visually after a test period of 3 weeks by comparison with untreated controls (herbicidal activity in percent (%): 100% activity=the plants have died, 0% activity=like control plants). […] The tables below illustrate, in an illustrative manner, the post-emergence herbicidal action of the compounds of the invention, the herbicidal activity being stated in percent. In the experiments that follow, the herbicidal action of the compounds of the invention and that of the corresponding known racemic compounds closest from WO2012126932 and WO2018202535 were compared under the above-specified conditions by the pre-emergence and post-emergence method. The example numbers given in the tables relate to the compounds disclosed in the respective documents.

AMARE [1] = experiment: Pre-emergence herbicidal action; assay type: in vivo, Amaranthus retroflexus; conditions: scored after 3 weeks
Text: as §1, with “percent.” for “percent. In the experiments that follow, the herbicidal action of the compounds of the invention and that of the corresponding known racemic compounds closest from WO2012126932 and WO2018202535 were compared under the above-specified conditions by the pre-emergence and post-emergence method. The example numbers given in the tables relate to the compounds disclosed in the respective documents.”

AVEFA = experiment: Pre-emergence herbicidal action; assay type: in vivo, Avena fatua
Text: as §1

DIGSA [2] = experiment: Pre-emergence herbicidal action; assay type: in vivo, Digitaria sanguinalis; conditions: scored after 3 weeks
Text: as §1, with “percent.” for “percent. In the experiments that follow, the herbicidal action of the compounds of the invention and that of the corresponding known racemic compounds closest from WO2012126932 and WO2018202535 were compared under the above-specified conditions by the pre-emergence and post-emergence method. The example numbers given in the tables relate to the compounds disclosed in the respective documents.”

ECHCG [3] = experiment: Pre-emergence herbicidal action; assay type: in vivo, Echinochloa crus-galli; conditions: 80 g/ha, scored after 3 weeks
Text: as §1, with “percent.” for “percent. In the experiments that follow, the herbicidal action of the compounds of the invention and that of the corresponding known racemic compounds closest from WO2012126932 and WO2018202535 were compared under the above-specified conditions by the pre-emergence and post-emergence method. The example numbers given in the tables relate to the compounds disclosed in the respective documents.”

LOLRI [4] = experiment: Pre-emergence herbicidal action; assay type: in vivo, Lolium rigidum
Text: as §1

MATIN [5] = experiment: Pre-emergence herbicidal action; assay type: in vivo, Matricaria inodora; conditions: scored after 3 weeks
Text: as §1

POLCO = experiment: Pre-emergence herbicidal action; assay type: in vivo, Polygonum convolvulus; conditions: 80 g/ha, scored after 3 weeks
Text: as §1

SETVI [6] = experiment: Pre-emergence herbicidal action; assay type: in vivo, Setaria viridis; conditions: scored after 3 weeks
Text: as §1

VERPE [7] = experiment: Pre-emergence herbicidal action; assay type: in vivo, Veronica persica; conditions: 80 g/ha, scored after 3 weeks
Text: as §1

VIOTR = experiment: Pre-emergence herbicidal action; assay type: in vivo, Viola tricolor; conditions: scored after 3 weeks
Text: as §1, with “percent.” for “percent. In the experiments that follow, the herbicidal action of the compounds of the invention and that of the corresponding known racemic compounds closest from WO2012126932 and WO2018202535 were compared under the above-specified conditions by the pre-emergence and post-emergence method. The example numbers given in the tables relate to the compounds disclosed in the respective documents.”

ZEAMX [8] = experiment: Pre-emergence damage to crop plants; assay type: in vivo, Zea mays; conditions: 80 g a.i./ha, comparative experiment
Text: as §1

GLXMA = experiment: Pre-emergence damage to crop plants; assay type: in vivo, Glycine max; conditions: comparative experiment
Text: as §1

AMARE [9] = experiment: Post-emergence herbicidal action; assay type: in vivo, Amaranthus retroflexus; conditions: assessed after about 3 weeks
Method: (§2) Seeds of monocotyledonous and dicotyledonous weed and crop plants are laid out in sandy loam soil in wood-fibre pots, covered with soil and cultivated in a greenhouse under good growth conditions. 2 to 3 weeks after sowing, the test plants are treated at the one-leaf stage. The compounds of the invention, formulated in the form of wettable powders (WP) or as emulsion concentrates (EC), are then sprayed onto the green parts of the plants in the form of an aqueous suspension or emulsion at a water application rate equating to 600 to 800 l/ha, with addition of 0.2% wetting agent. After the test plants have been left to stand in the greenhouse under optimal growth conditions for about 3 weeks, the action of the preparations is assessed visually in comparison to untreated controls (herbicidal action in percent (%): 100% activity=the plants have died, 0% activity=like control plants). […] The tables below illustrate, in an illustrative manner, the post-emergence herbicidal action of the compounds of the invention, the herbicidal activity being stated in percent.

DIGSA [10] = experiment: Post-emergence herbicidal action; assay type: in vivo, Digitaria sanguinalis; conditions: for Post-emergence action against DIGSA: assessed after about 3 weeks
Method: as §2, with “percent. In the experiments that follow, the herbicidal action of the compounds of the invention and that of the corresponding known racemic compounds closest from WO2012126932 and WO2018202535 were compared under the above-specified conditions by the pre-emergence and post-emergence method. The example numbers given in the tables relate to the compounds disclosed in the respective documents.” for “percent.”

ECHCG [11] = experiment: Post-emergence herbicidal action; assay type: in vivo, Echinochloa crus-galli; conditions: 20 g/ha, assessed after about 3 weeks
Method: as §2, with “percent. In the experiments that follow, the herbicidal action of the compounds of the invention and that of the corresponding known racemic compounds closest from WO2012126932 and WO2018202535 were compared under the above-specified conditions by the pre-emergence and post-emergence method. The example numbers given in the tables relate to the compounds disclosed in the respective documents.” for “percent.”

MATIN [12] = experiment: Post-emergence herbicidal action; assay type: in vivo, Matricaria inodora; conditions: 20 g/ha, assessed after about 3 weeks
Method: as §2

SETVI [13] = experiment: Post-emergence herbicidal action; assay type: in vivo, Setaria viridis; conditions: assessed after about 3 weeks
Method: as §2, with “percent. In the experiments that follow, the herbicidal action of the compounds of the invention and that of the corresponding known racemic compounds closest from WO2012126932 and WO2018202535 were compared under the above-specified conditions by the pre-emergence and post-emergence method. The example numbers given in the tables relate to the compounds disclosed in the respective documents.” for “percent.”

VERPE [14] = experiment: Post-emergence herbicidal action; assay type: in vivo, Veronica persica; conditions: 5 g a.i./ha, comparative experiment
Method: as §2, with “percent. In the experiments that follow, the herbicidal action of the compounds of the invention and that of the corresponding known racemic compounds closest from WO2012126932 and WO2018202535 were compared under the above-specified conditions by the pre-emergence and post-emergence method. The example numbers given in the tables relate to the compounds disclosed in the respective documents.” for “percent.”

LOLRI [15] = experiment: Post-emergence herbicidal action; assay type: in vivo, Lolium rigidum; conditions: 20 g a.i./ha, comparative experiment
Method: as §2, with “percent. In the experiments that follow, the herbicidal action of the compounds of the invention and that of the corresponding known racemic compounds closest from WO2012126932 and WO2018202535 were compared under the above-specified conditions by the pre-emergence and post-emergence method. […]” for “percent.”

ZEAMX [16] = experiment: Post-emergence damage to crop plants; assay type: in vivo, Zea mays; conditions: 20 g a.i./ha, comparative experiment
Method: as §2, with “percent. In the experiments that follow, the herbicidal action of the compounds of the invention and that of the corresponding known racemic compounds closest from WO2012126932 and WO2018202535 were compared under the above-specified conditions by the pre-emergence and post-emergence method. The example numbers given in the tables relate to the compounds disclosed in the respective documents.” for “percent.”

TRZAS = experiment: Post-emergence damage to crop plants; assay type: in vivo, Triticum aestiva; conditions: 20 g a.i./ha, comparative experiment
Method: as §2, with “percent. In the experiments that follow, the herbicidal action of the compounds of the invention and that of the corresponding known racemic compounds closest from WO2012126932 and WO2018202535 were compared under the above-specified conditions by the pre-emergence and post-emergence method. The example numbers given in the tables relate to the compounds disclosed in the respective documents.” for “percent.”

BRSNW = experiment: Post-emergence damage to crop plants; assay type: in vivo, Brassica napus; conditions: 20 g a.i./ha, comparative experiment
Method: as §2, with “percent. In the experiments that follow, the herbicidal action of the compounds of the invention and that of the corresponding known racemic compounds closest from WO2012126932 and WO2018202535 were compared under the above-specified conditions by the pre-emergence and post-emergence method. […]” for “percent.”

[17] = 20 g a.i./ha, comparative experiment

With `Cc1nnc(NC(=O)c2ccc(C(F)(F)F)c([S+]([O-])C3CC3)c2Cl)o1` (stereo in doubt) [Example I-4, 2-chloro-N-(5-methyl-1,3,4-oxadiazol-2-yl)-3-[(S)-cyclopropylsulfinyl]-4-(trifluoromethyl)benzamide] the “Herbicidal action against ALOMY” value (ALOMY; [17]) was 80%, the “Pre-emergence action against ALOMY” value (ALOMY; 20 g/ha) was 80% and the “Pre-emergence action against ALOMY” value (ALOMY; 80 g/ha) was 100%. The “Pre-emergence action against AMARE” value (AMARE [1]; 20 g/ha) was 100%, the “Pre-emergence action against AMARE” value (AMARE [1]; 80 g/ha) was 100% and the “Herbicidal action against AVEFA” value (AVEFA; [17]) was 30%. The “Pre-emergence action against AVEFA” value (AVEFA; 80 g/ha, scored after 3 weeks) was 90%, the “Pre-emergence action against DIGSA” value (DIGSA [2]; 20 g/ha) was 100% and the “Pre-emergence action against DIGSA” value (DIGSA [2]; 80 g/ha) was 100%. The “Pre-emergence action against ECHCG” value (ECHCG [3]) was 100%, the “Herbicidal action against LOLRI” value (LOLRI [4]; [17]) was 50% and the “Pre-emergence action against LOLRI” value (LOLRI [4]; 80 g/ha, scored after 3 weeks) was 80%. The “Pre-emergence action against MATIN” value (MATIN [5]; 20 g/ha) was 80%, the “Pre-emergence action against MATIN” value (MATIN [5]; 80 g/ha) was 100% and the “Pre-emergence action against POLCO” value (POLCO) was 80%. For the same compound, the “Pre-emergence action against SETVI” value (SETVI [6]; 20 g/ha) was 100%, the “Pre-emergence action against SETVI” value (SETVI [6]; 80 g/ha) was 100% and the “Pre-emergence action against VERPE” value (VERPE [7]) was 100%. The “Pre-emergence action against VIOTR” value (VIOTR; 20 g/ha) was 100%, the “Pre-emergence action against VIOTR” value (VIOTR; 80 g/ha) was 100% and the “Damage to ZEAMX” value (ZEAMX [8]) was 50%. For the same compound, the “Damage to GLXMA” value (GLXMA; 20 g a.i./ha) was 40%, the “Damage to GLXMA” value (GLXMA; 80 g a.i./ha) was 80% and the “Post-emergence action against AMARE” value (AMARE [9]; 5 g/ha) was 100%. The “Post-emergence action against AMARE” value (AMARE [9]; 20 g/ha) was 100%, the “Post-emergence action against DIGSA” value (DIGSA [10]; 5 g/ha) was 90% and the “Herbicidal action against DIGSA” value (DIGSA [10]; [17]) was 100%. For the same compound, the “Post-emergence action against DIGSA” value (DIGSA [10]; 20 g/ha) was 100%, the “Post-emergence action against ECHCG” value (ECHCG [11]) was 90% and the “Post-emergence action against MATIN” value (MATIN [12]) was 80%. The “Post-emergence action against SETVI” value (SETVI [13]; 5 g/ha) was 100%, the “Post-emergence action against SETVI” value (SETVI [13]; 20 g/ha) was 100% and the “Herbicidal action against VERPE” value (VERPE [14]) was 60%. The “Herbicidal action against LOLRI” value (LOLRI [15]) was 60%, the “Damage to ZEAMX” value (ZEAMX [16]) was 0% and the “Damage to TRZAS” value (TRZAS) was 20%. The “Damage to BRSNW” value (BRSNW) was 80%.
